From patent publication US20250235455A1, “AQUEOUS TICAGRELOR SOLUTIONS, METHOD OF MANUFACTURING AND USES” (HYLORIS DEVELOPMENTS SA, priority 2022, published 2025)

Assays:
[1] = Storage stability in amber glass vials at pH 7, 7.5 and 8, 19 mM buffer; assay type: physicochemical; settings: for Acetal impurity / Amine impurity / Description / Regiomer / Sum Impurities >0.05 / Total impurity / Triol impurity / pH / Assay: HPβCD 40% w/w; for Assay: in %
Method: To optimize the HPβCD concentration and the pH of the solution for intravenous use, a 12 week/3 months stability study was conducted. […] Its stability was tested at regular intervals.
A comparison of stability profile at 3 different pH—7, 7.5 and 8—was carried out as below, the manufacturing process for all 3 formulations was kept constant with buffer strength at 19 mM.

[2] = Bulk hold study, ticagrelor 8 mg/ml in 30% w/w HPβCD, phosphate buffer pH 7.5; assay type: physicochemical
Method: To investigate the impact of temperature and hold time, a new composition was prepared as per below Table 19.
In first step a phosphate buffer at pH 7.5 was prepared and the buffered solution was heated to 40° C.-45° C. HPβCD was added to the buffered solution under continuous mixing. […] It usually took 30 mins to 4 hours depending on batch size.
Then this solution was filtered through a 0.22-micron filter and packed in suitable clear or amber colored glass vials

[3] = 19 mM pH 7 Phosphate Buffer, 1 M
[4] = 19 mM pH 7 Phosphate Buffer, 2 M
[5] = 19 mM pH 7 Phosphate Buffer, 3 M
[6] = 19 mM pH 7 Phosphate Buffer, T0
[7] = 19 mM pH 7.5 Phosphate Buffer, 1 M
[8] = 19 mM pH 7.5 Phosphate Buffer, 2 M
[9] = 19 mM pH 7.5 Phosphate Buffer, 3 M
[10] = 19 mM pH 7.5 Phosphate Buffer, T0
[11] = 19 mM pH 8 Phosphate buffer, 1 M
[12] = 19 mM pH 8 Phosphate buffer, 2 M
[13] = 19 mM pH 8 Phosphate buffer, 3 M
[14] = 19 mM pH 8 Phosphate buffer, T0

CCCSc1nc(N[C@@H]2C[C@H]2c2ccc(F)c(F)c2)c2nnn([C@@H]3C[C@H](OCCO)[C@@H](O)[C@H]3O)c2n1 [Ticagrelor, (1S,2S,3R,5S)-3-{7-[(1R,2S)-2-(3,4-difluorophenyl)cyclopropylamino]5-(propylthio)-3H-(1,2,3)triazolo (4,5-D)pyrimidin-3-yl}-5-(2 hydroxyethoxy)cyclopentane-1,2-diol]
Acetal impurity [1, 3]: 0.05% | Amine impurity [1, 3]: 0.04% | Description [1, 3]: clear | Regiomer [1, 3]: 0.03% | Sum Impurities >0.05 [1, 3]: 0.05% | Total impurity [1, 3]: 0.27% | Triol impurity [1, 3]: 0.02% | pH [1, 3]: 7.34 | Assay [1, 3]: 99.73 | Acetal impurity [1, 4]: 0.05% | Amine impurity [1, 4]: 0.04% | Description [1, 4]: clear | Regiomer [1, 4]: 0.06% | Sum Impurities >0.05 [1, 4]: 0.11% | Total impurity [1, 4]: 0.34% | Triol impurity [1, 4]: 0.04% | pH [1, 4]: 7.34 | Assay [1, 4]: 99.81 | Acetal impurity [1, 5]: 0.05% | Amine impurity [1, 5]: 0.06% | Description [1, 5]: clear | Regiomer [1, 5]: 0.11% | Sum Impurities >0.05 [1, 5]: 0.22% | Total impurity [1, 5]: 0.40% | Triol impurity [1, 5]: 0.04% | pH [1, 5]: 7.30 | Assay [1, 5]: 98.51 | Acetal impurity [1, 6]: 0.05% | Amine impurity [1, 6]: 0.04% | Description [1, 6]: clear | Regiomer [1, 6]: 0.00% | Sum Impurities >0.05 [1, 6]: 0.22% | Total impurity [1, 6]: 0.41% | Triol impurity [1, 6]: 0.05% | pH [1, 6]: 7.33 | Assay [1, 6]: 98.95 | Acetal impurity [1, 7]: 0.05% | Amine impurity [1, 7]: 0.05% | Description [1, 7]: clear | Regiomer [1, 7]: 0.01% | Sum Impurities >0.05 [1, 7]: 0.14% | Total impurity [1, 7]: 0.32% | Triol impurity [1, 7]: 0.05% | pH [1, 7]: 7.50 | Assay [1, 7]: 104.47 | Acetal impurity [1, 8]: 0.05% | Amine impurity [1, 8]: 0.05% | Description [1, 8]: clear | Regiomer [1, 8]: 0.04% | Sum Impurities >0.05 [1, 8]: 0.15% | Total impurity [1, 8]: 0.29% | Triol impurity [1, 8]: 0.05% | pH [1, 8]: 7.48 | Assay [1, 8]: 102.59 | Acetal impurity [1, 9]: 0.05% | Amine impurity [1, 9]: 0.05% | Description [1, 9]: clear | Regiomer [1, 9]: 0.08% | Sum Impurities >0.05 [1, 9]: 0.23% | Total impurity [1, 9]: 0.41% | Triol impurity [1, 9]: 0.04% | pH [1, 9]: 7.55 | Assay [1, 9]: 102.31 | Acetal impurity [1, 10]: 0.05% | Amine impurity [1, 10]: 0.04% | Description [1, 10]: clear | Regiomer [1, 10]: 0.00% | Sum Impurities >0.05 [1, 10]: 0.11% | Total impurity [1, 10]: 0.31% | Triol impurity [1, 10]: 0.04% | pH [1, 10]: 7.40 | Assay [1, 10]: 104.27 | Acetal impurity [1, 11]: 0.05% | Amine impurity [1, 11]: 0.05% | Description [1, 11]: clear | Regiomer [1, 11]: 0.01% | Sum Impurities >0.05 [1, 11]: 0.09% | Total impurity [1, 11]: 0.26% | Triol impurity [1, 11]: 0.03% | pH [1, 11]: 8.10 | Assay [1, 11]: 105.88 | Acetal impurity [1, 12]: 0.05% | Amine impurity [1, 12]: 0.05% | Description [1, 12]: clear | Regiomer [1, 12]: 0.03% | Sum Impurities >0.05 [1, 12]: 0.15% | Total impurity [1, 12]: 0.32% | Triol impurity [1, 12]: 0.05% | pH [1, 12]: 8.04 | Assay [1, 12]: 105.46 | Acetal impurity [1, 13]: 0.05% | Amine impurity [1, 13]: 0.07% | Description [1, 13]: clear | Regiomer [1, 13]: 0.06% | Sum Impurities >0.05 [1, 13]: 0.23% | Total impurity [1, 13]: 0.37% | Triol impurity [1, 13]: 0.05% | pH [1, 13]: 8.03 | Assay [1, 13]: 104.46 | Acetal impurity [1, 14]: 0.05% | Amine impurity [1, 14]: 0.04% | Description [1, 14]: clear | Regiomer [1, 14]: 0.00% | Sum Impurities >0.05 [1, 14]: 0.25% | Total impurity [1, 14]: 0.43% | Triol impurity [1, 14]: 0.06% | pH [1, 14]: 8.07 | Assay [1, 14]: 103.25 | Stability of solution in HPβCD ([1]; pH range of 7 to 8): stable | Acetal impurity ([2]; Bulk hold 45° C., T = 1 h): 0.04% | Amine impurity ([2]; Bulk hold 45° C., T = 1 h): 0.05% | Assay Ticagrelor ([2]; Bulk hold 45° C., T = 1 h): 107.87% | Sum Impurities >0.05 ([2]; Bulk hold 45° C., T = 1 h): 0.12% | Total Impurities ([2]; Bulk hold 45° C., T = 1 h): 0.20% | Triol impurity ([2]; Bulk hold 45° C., T = 1 h): 0.04% | Unnamed impurity, relative retention time 1.33 ([2]; Bulk hold 45° C., T = 1 h): 0.07% | Acetal impurity ([2]; Bulk hold 45° C., T = 110 h): 0.04% | Amine impurity ([2]; Bulk hold 45° C., T = 110 h): 0.07% | Assay Ticagrelor ([2]; Bulk hold 45° C., T = 110 h): 109.10% | Sum Impurities >0.05 ([2]; Bulk hold 45° C., T = 110 h): 0.11% | Total Impurities ([2]; Bulk hold 45° C., T = 110 h): 0.28% | Triol impurity ([2]; Bulk hold 45° C., T = 110 h): 0.05% | Unnamed impurity, relative retention time 1.33 ([2]; Bulk hold 45° C., T = 110 h): 0.03% | Acetal impurity ([2]; Bulk hold at 30° C., T0): 0.04% | Amine impurity ([2]; Bulk hold at 30° C., T0): 0.06% | Assay Ticagrelor ([2]; Bulk hold at 30° C., T0): 105.60% | Regiomer impurity ([2]; Bulk hold at 30° C., T0): 0.00% | Sum Impurities >0.05 ([2]; Bulk hold at 30° C., T0): 0.10% | Total Impurities ([2]; Bulk hold at 30° C., T0): 0.21% | Triol impurity ([2]; Bulk hold at 30° C., T0): 0.05% | Acetal impurity ([2]; Bulk hold at 30° C., T4 W): 0.04% | Amine impurity ([2]; Bulk hold at 30° C., T4 W): 0.06% | Assay Ticagrelor ([2]; Bulk hold at 30° C., T4 W): 106.14% | Regiomer impurity ([2]; Bulk hold at 30° C., T4 W): 0.00% | Sum Impurities >0.05 ([2]; Bulk hold at 30° C., T4 W): 0.06% | Total Impurities ([2]; Bulk hold at 30° C., T4 W): 0.21% | Triol impurity ([2]; Bulk hold at 30° C., T4 W): 0.04% | Acetal impurity ([2]; sealed vials, T = 1 M, 25° C.): 0.03% | Amine impurity ([2]; sealed vials, T = 1 M, 25° C.): 0.06% | Assay Ticagrelor ([2]; sealed vials, T = 1 M, 25° C.): 107.22% | Regiomer impurity ([2]; sealed vials, T = 1 M, 25° C.): 0.03% | Sum Impurities >0.05 ([2]; sealed vials, T = 1 M, 25° C.): 0.06% | Total Impurities ([2]; sealed vials, T = 1 M, 25° C.): 0.23% | Triol impurity ([2]; sealed vials, T = 1 M, 25° C.): 0.01% | Unnamed impurity, relative retention time 1.03 ([2]; sealed vials, T = 1 M, 25° C.): 0.02% | Unnamed impurity, relative retention time 1.33 ([2]; sealed vials, T = 1 M, 25° C.): 0.03% | Acetal impurity ([2]; sealed vials, T = 1 M, 40° C.): 0.00% | Amine impurity ([2]; sealed vials, T = 1 M, 40° C.): 0.06% | Assay Ticagrelor ([2]; sealed vials, T = 1 M, 40° C.): 105.16% | Regiomer impurity ([2]; sealed vials, T = 1 M, 40° C.): 0.08% | Sum Impurities >0.05 ([2]; sealed vials, T = 1 M, 40° C.): 0.21% | Total Impurities ([2]; sealed vials, T = 1 M, 40° C.): 0.28% | Triol impurity ([2]; sealed vials, T = 1 M, 40° C.): 0.00% | Unnamed impurity, relative retention time 1.03 ([2]; sealed vials, T = 1 M, 40° C.): 0.02% | Unnamed impurity, relative retention time 1.33 ([2]; sealed vials, T = 1 M, 40° C.): 0.08%
